Among the data in US11999727B2 (Tango Therapeutics, Inc., priority 2020, dated 2024) are IC50 and MTAP intact/deleted ratio values, retold here.

The target of test [1] is T1, PRMT5 (Homo sapiens, UniProt O14744).
T1 construct: purchased Viva (custom protein)
As to the kind of experiment: PRMT5 biochemical IC50 assay with no cofactor. Conditions: PRMT5, no cofactor; read-out: No Cofactor/rel IC50. An excerpt:
Table 1 indicates IC50 values (μM) against PRMT5 for exemplary compounds in the presence of SAM as cofactor, with no cofactor, and with MTA as cofactor, respectively (columns 4-6). […] Ki values can be calculated from the IC50 values as described in the Examples section. As detailed in the Examples section, for the assay performed in the presence of SAM, IC50=Ki×1.5 (Ki=IC50/1.5).

Test [2] relates to HAP1 MTAP-deleted cell line. In words: SDMA in-cell western assay, HAP1 MTAP-deleted. It is filed as cell-based. The following applies: for IC50: Homo sapiens, HAP1, SDMA in-cell western, HAP1 MTAP-deleted, read-out: HAP 1 MTAP deleted IC50; for MTAP intact/deleted ratio: IC50 ratio HAP1 MTAP-intact / HAP1 MTAP-deleted, SDMA in-cell western. The method, boiled down:
(§1)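 Isogenic HAP1 pair: the MTAP-intact line expresses endogenous MTAP, and the deleted line is MTAP-null. Symmetric dimethylarginine was detected by in-cell western and IC50 values derived for each line.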

For test [3], the system named is HAP1 MTAP-intact cell line. As to the kind of experiment: SDMA in-cell western assay, HAP1 MTAP-intact. It is filed as cell-based. Conditions: Homo sapiens, HAP1, SDMA in-cell western, HAP1 MTAP-intact; read-out: MTAP HAP1 intact IC50. Put shortly: as §1
Test [4] addresses T1, PRMT5. In words: PRMT5 biochemical IC50 assay with SAM as cofactor. The following applies: PRMT5, SAM as cofactor; read-out: SAM IC50.
In test [5] the target is T1, PRMT5. In words: PRMT5 biochemical IC50 assay with MTA as cofactor. Conditions: PRMT5, MTA as cofactor; read-out: MTA IC50.
Test [6] relates to HAP1 MTAP-deleted cell line. In words: Viability assay, MTAP-deleted cell line. Conditions: Homo sapiens, HAP1, viability IC50, MTAP-deleted cell line; read-out: HAP1 MTAP deleted viability. It is filed as cell-based. From the text:
Table 1 additionally indicates IC50 values in a viability assay for the MTAP-deleted cell line (column 10), indicating the effect of treatment with compound on cell survival.

T1 sequence (O14744 whole entry): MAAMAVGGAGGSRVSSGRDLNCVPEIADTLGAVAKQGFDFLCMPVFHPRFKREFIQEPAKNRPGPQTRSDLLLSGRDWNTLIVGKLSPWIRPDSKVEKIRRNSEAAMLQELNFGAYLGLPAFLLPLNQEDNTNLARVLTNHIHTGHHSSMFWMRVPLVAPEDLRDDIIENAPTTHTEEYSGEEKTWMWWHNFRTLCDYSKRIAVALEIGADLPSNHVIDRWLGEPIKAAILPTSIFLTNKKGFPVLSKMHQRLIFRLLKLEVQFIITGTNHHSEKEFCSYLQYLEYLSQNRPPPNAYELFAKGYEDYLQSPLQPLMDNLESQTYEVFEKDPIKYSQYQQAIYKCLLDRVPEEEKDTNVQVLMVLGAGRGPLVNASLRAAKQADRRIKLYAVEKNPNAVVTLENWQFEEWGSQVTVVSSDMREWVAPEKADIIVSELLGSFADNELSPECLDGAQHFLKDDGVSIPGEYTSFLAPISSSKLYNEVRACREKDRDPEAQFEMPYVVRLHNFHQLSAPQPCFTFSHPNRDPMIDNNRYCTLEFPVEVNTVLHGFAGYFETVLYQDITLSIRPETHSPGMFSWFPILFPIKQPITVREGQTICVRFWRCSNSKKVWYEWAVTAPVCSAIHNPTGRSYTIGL
T1 sequence (Q9BQA1 whole entry partner): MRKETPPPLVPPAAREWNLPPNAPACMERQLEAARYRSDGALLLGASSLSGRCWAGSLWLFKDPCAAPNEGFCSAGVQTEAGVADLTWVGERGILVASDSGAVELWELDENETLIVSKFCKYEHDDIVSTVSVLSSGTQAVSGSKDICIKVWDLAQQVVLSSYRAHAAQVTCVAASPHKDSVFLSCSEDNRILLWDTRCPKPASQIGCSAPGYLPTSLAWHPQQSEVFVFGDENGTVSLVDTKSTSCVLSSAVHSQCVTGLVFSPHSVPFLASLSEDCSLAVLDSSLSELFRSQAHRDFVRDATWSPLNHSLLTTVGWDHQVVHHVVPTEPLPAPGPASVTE

On to `Cc1cc(NC(=O)C(=O)N2C[C@H](C)CC[C@H]2c2ccc(-c3ccn[nH]3)cc2)cnc1N` (single isomer, unassigned) [Compound 675], for which the IC50 in test [1] is greater than 500 nM; in test [2], greater than 1000 nM; in test [3] it was greater than 1000 nM; in test [4], greater than 500 nM; in test [5], 50 to 500 nM; in test [6], greater than 10000 nM. Also, in test [2], the MTAP intact/deleted ratio entry is recorded as “B (an IC50 ratio greater than or equal to 3 fold but lower than 10 fold)”.
For `Cc1cc(NC(=O)C(=O)N2C[C@@H](C)CC[C@@H]2c2ccc(-c3ccn[nH]3)cc2)cnc1N` (single isomer, unassigned) [Compound 676], the IC50 is less than 50 nM in test [1]; less than 100 nM in test [2]; 100 to 1000 nM in test [3]; 50 to 500 nM in test [4]; less than 50 nM in test [5]; less than 1000 nM in test [6]. The MTAP intact/deleted ratio entry in test [2] is “B (an IC50 ratio greater than or equal to 3 fold but lower than 10 fold)”.
Turning to `Cc1cc(NC(=O)C(=O)N2C[C@H](C)CC[C@H]2c2cc(Cl)cc(Cl)c2)cnc1N` (single isomer, unassigned) [Compound 681], the IC50 was less than 50 nM in test [1]; less than 100 nM in test [2]; greater than 1000 nM in test [3]; 50 to 500 nM in test [4]; less than 50 nM in test [5]; 1000 to 10000 nM in test [6]. The MTAP intact/deleted ratio result in test [2] was “A (an IC50 ratio greater than or equal to 10 fold)”.
With `C[C@H]1CN(C(=O)C(=O)Nc2cncc(C(N)=O)c2)[C@H](c2ccc(F)c(F)c2)CC1(F)F` (single isomer, unassigned) [Compound 683], the IC50 in test [1] is 50 to 500 nM; in test [2], 100 to 1000 nM; in test [3], greater than 1000 nM; in test [4], 50 to 500 nM; in test [5], less than 50 nM; in test [6] it was 1000 to 10000 nM. The MTAP intact/deleted ratio entry in test [2] is recorded as “A (an IC50 ratio greater than or equal to 10 fold)”.
With `Cc1cc(NC(=O)C(=O)N2C[C@H](C)C(F)(F)C[C@H]2c2ccc(F)c(F)c2)cnc1N` (single isomer, unassigned) [Compound 684], the IC50 in test [1] is greater than 500 nM; in test [2], greater than 1000 nM; in test [3] it was greater than 1000 nM; in test [4], greater than 500 nM; in test [5], greater than 500 nM; in test [6], greater than 10000 nM. The MTAP intact/deleted ratio result in test [2] is listed as “C (an IC50 ratio of less than 3 fold)”.
For the compound `CC(=O)Nc1ccc([C@H]2CC[C@H](C)CN2C(=O)C(=O)Nc2cncc(C(N)=O)c2)s1` (single isomer, unassigned) [Compound 686], the IC50 is greater than 500 nM in test [1]; greater than 1000 nM in test [2]; greater than 1000 nM in test [3]; greater than 500 nM in test [4]; greater than 500 nM in test [5]; greater than 10000 nM in test [6]. In addition, the MTAP intact/deleted ratio entry in test [2] is listed as “C (an IC50 ratio of less than 3 fold)”.
As for `Cc1ccc([C@@H]2CC[C@@H](C)CN2C(=O)C(=O)Nc2cnc(N)c(C)c2)cn1` (single isomer, unassigned) [Compound 687], the IC50 in test [1] was less than 50 nM; in test [2], less than 100 nM; in test [3], 100 to 1000 nM; in test [4], 50 to 500 nM; in test [5], less than 50 nM; in test [6], less than 1000 nM. The MTAP intact/deleted ratio entry in test [2] is given as “A (an IC50 ratio greater than or equal to 10 fold)”.
Consider `Cc1cc(NC(=O)C(=O)N2C[C@H](C)CC[C@H]2c2ccc(C(F)(F)F)c(Cl)c2)cnc1N` (single isomer, unassigned) [Compound 689], for which the IC50 is greater than 500 nM in test [1]; greater than 1000 nM in test [2]; greater than 1000 nM in test [3]; greater than 500 nM in test [4]; greater than 500 nM in test [5]; greater than 10000 nM in test [6]. Moreover, in test [2], the MTAP intact/deleted ratio result is recorded as “C (an IC50 ratio of less than 3 fold)”.
